Source: patent US11000033B2, “Ketone or oxime compound, and herbicide” (NISSAN CHEMICAL CORPORATION, priority 2014, dated 2021)

Tests used:
Assay type in all cases: in vivo
Lolium multiflorum Lam. = experiment: Test Example 5: herbicidal effect by foliage application, plastic box (symbol K); conditions: 320 g/ha, 3 weeks after application
Procedure, shortened: (§1)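 Greenhouse foliar test: seedlings at 14 days, grown 25° C. to 30° C. in sterilized diluvial soil; compound applied as an aqueous dilution of an emulsion; response read 3 weeks after spraying.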

rapeseed = experiment: Test Example 4: effect on crop by soil treatment (symbol g); conditions: application herbicide amount 320 g/ha
Procedure, shortened: (§2)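 Sterilized diluvial soil, spot sowing, ~1.5 cm soil cover; greenhouse 25–30° C.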

Veronica persica = experiment: Test Example 5: herbicidal effect by foliage application, plastic box (symbol R); conditions: 320 g/ha, 3 weeks after application
Procedure, shortened: as §1

rice = experiment: Test Example 4: effect on crop by soil treatment (symbol b); conditions: application herbicide amount 320 g/ha
Procedure, shortened: as §2

wheat = experiment: Test Example 5: effect on crop by foliage application, plastic box (symbol e); conditions: 320 g/ha, 3 weeks after application
Procedure, shortened: (§3)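 Crop and weed seeds sown in spots in sterilized diluvial soil in plastic boxes and covered with about 1.5 cm soil. Plants raised in a greenhouse at 25° C. to 30° C. for foliar application.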

Alopecurus myosuroides [1] = experiment: Test Example 5: herbicidal effect by foliage application, plastic box (symbol J); conditions: 320 g/ha, 3 weeks after application
Procedure, shortened: as §1

beet = experiment: Test Example 5: effect on crop by foliage application, plastic box (symbol f); conditions: 320 g/ha, 3 weeks after application
Procedure, shortened: as §3

transplanted rice plant = experiment: Test Example 1: effect on crop, application before weed generation in submerged conditions (symbol a); conditions: application herbicide amount 320 g/ha
Procedure, shortened: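 Rice at 2.5 leaf stage transplanted into submerged soil (4 cm depth) sown with three weed species; herbicide applied before weed emergence.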

corn [2] = experiment: Test Example 4: effect on crop by soil treatment (symbol c); conditions: application herbicide amount 320 g/ha
Procedure, shortened: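 Soil-treatment setup: crop and weed seeds were spot-sown into sterilized diluvial soil, then buried beneath approximately 1.5 cm of it, and the boxes were housed in a 25–30° C. greenhouse.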

Digitaria ciliaris = experiment: Test Example 4: herbicidal effect by soil treatment (symbol F); conditions: application herbicide amount 320 g/ha
Procedure, shortened: (§4)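 Seeds were sown in sterilized diluvial soil, covered with about 1.5 cm of soil, and the soil surface was sprayed with a water-diluted emulsion of the compound at a predetermined rate. Plants grew in a greenhouse at 25° C. to 30° C.; effects were scored visually 3 weeks after application.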

Scirpus juncoides = experiment: Test Example 2: herbicidal activity, application during weed generation in submerged conditions (symbol B); conditions: Table 23; application herbicide amount 320 g/ha; grade 0-5 by criteria of Test Example 1
Procedure, shortened: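 Seeds sown in flooded alluvial soil (4 cm water) were grown in a 25-30° C greenhouse. At the one- to two-leaf stage, diluted emulsion of compound was applied to the water surface at a predetermined rate. Effect was scored 3 weeks later.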

Alopecurus myosuroides [3] = experiment: Test Example 4: herbicidal effect by soil treatment (symbol J); conditions: application herbicide amount 320 g/ha
Procedure, shortened: as §4

corn [4] = experiment: Test Example 5: effect on crop by foliage application, plastic box (symbol c); conditions: 320 g/ha, 3 weeks after application
Procedure, shortened: as §3

| Structure (SMILES) | K: Lolium multiflorum Lam., herbicidal effect grade (Lolium multiflorum Lam.) | g (rapeseed) effect on crop grade (rapeseed) | R: Veronica persica, herbicidal effect grade (Veronica persica) | b (directly sowed rice plant) effect on crop grade (rice) | e: wheat, effect on crop grade (wheat) | J: Alopecurus myosuroides, herbicidal effect grade (Alopecurus myosuroides [1]) | f: beet, effect on crop grade (beet) | Effect grade on crop, a: transplanted rice plant (transplanted rice plant) | c (corn) effect on crop grade (corn [2]) | F (Digitaria ciliaris) herbicidal effect grade (Digitaria ciliaris) | Herbicidal effect grade, B: Scirpus juncoides (Scirpus juncoides) | J (Alopecurus myosuroides) herbicidal effect grade (Alopecurus myosuroides [3]) | c: corn, effect on crop grade (corn [4]) | g: rapeseed, effect on crop grade (rapeseed) | b: directly sowed rice plant, effect on crop grade (rice) | c: corn, effect on crop grade (corn [2]) | F: Digitaria ciliaris, herbicidal effect grade (Digitaria ciliaris) | J: Alopecurus myosuroides, herbicidal effect grade (Alopecurus myosuroides [3]) |
| --- | --- | --- | --- | --- | --- | --- | --- | --- | --- | --- | --- | --- | --- | --- | --- | --- | --- | --- |
| C#CCOC1=C(c2c(C)cc(C)cc2C)C(=O)C(CC(C)=NOC)C1 (stereo not drawn) [1-008] | 5 (Herbicidal ratio of 90% or more (almost completely withered)) | 0 (Herbicidal ratio of 5% or lower (almost no effect)) | 0 (Herbicidal ratio of 5% or lower (almost no effect)) | 3 (Herbicidal ratio of 40% or higher and lower than 70%) | 0 (Herbicidal ratio of 5% or lower (almost no effect)) | 5 (Herbicidal ratio of 90% or more (almost completely withered)) | 0 (Herbicidal ratio of 5% or lower (almost no effect)) | 0 (Herbicidal ratio of 5% or lower (almost no effect)) | 0 (Herbicidal ratio of 5% or lower (almost no effect)) | 5 (Herbicidal ratio of 90% or more (almost completely withered)) | 2 (Herbicidal ratio of 20% or higher and lower than 40%) | 5 (Herbicidal ratio of 90% or more (almost completely withered)) | 0 (Herbicidal ratio of 5% or lower (almost no effect)) | – | – | – | – | – |
| Cc1cc(C)c(C2=C(O)CC(CC(=O)Cc3ccccc3)C2=O)c(C)c1 (stereo not drawn) [2-015] | 5 (Herbicidal ratio of 90% or more (almost completely withered)) | – | 0 (Herbicidal ratio of 5% or lower (almost no effect)) | – | 0 (Herbicidal ratio of 5% or lower (almost no effect)) | 5 (Herbicidal ratio of 90% or more (almost completely withered)) | 0 (Herbicidal ratio of 5% or lower (almost no effect)) | 0 (Herbicidal ratio of 5% or lower (almost no effect)) | – | – | 0 (Herbicidal ratio of 5% or lower (almost no effect)) | – | 4 (Herbicidal ratio of 70% or higher and lower than 90%) | 0 (Herbicidal ratio of 5% or lower (almost no effect)) | 4 (Herbicidal ratio of 70% or higher and lower than 90%) | 0 (Herbicidal ratio of 5% or lower (almost no effect)) | 3 (Herbicidal ratio of 40% or higher and lower than 70%) | 2 (Herbicidal ratio of 20% or higher and lower than 40%) |
| Cc1cc(C)c(C2=C(O)CC(CC(=O)C(C)C)C2=O)c(C)c1 (stereo not drawn) [2-016] | 5 (Herbicidal ratio of 90% or more (almost completely withered)) | – | 0 (Herbicidal ratio of 5% or lower (almost no effect)) | – | 0 (Herbicidal ratio of 5% or lower (almost no effect)) | 5 (Herbicidal ratio of 90% or more (almost completely withered)) | 0 (Herbicidal ratio of 5% or lower (almost no effect)) | 4 (Herbicidal ratio of 70% or higher and lower than 90%) | – | – | 0 (Herbicidal ratio of 5% or lower (almost no effect)) | – | 4 (Herbicidal ratio of 70% or higher and lower than 90%) | 2 (Herbicidal ratio of 20% or higher and lower than 40%) | 5 (Herbicidal ratio of 90% or more (almost completely withered)) | 3 (Herbicidal ratio of 40% or higher and lower than 70%) | 5 (Herbicidal ratio of 90% or more (almost completely withered)) | 4 (Herbicidal ratio of 70% or higher and lower than 90%) |
| CC(=O)CC1CC(OC(=O)C(C)(C)C)=C(c2c(C)cc(C)cc2C)C1=O (stereo not drawn) [2-018] | 4 (Herbicidal ratio of 70% or higher and lower than 90%) | – | 0 (Herbicidal ratio of 5% or lower (almost no effect)) | – | 0 (Herbicidal ratio of 5% or lower (almost no effect)) | 1 (Herbicidal ratio of 5% or higher and lower than 20%) | 0 (Herbicidal ratio of 5% or lower (almost no effect)) | 4 (Herbicidal ratio of 70% or higher and lower than 90%) | – | – | 0 (Herbicidal ratio of 5% or lower (almost no effect)) | – | 0 (Herbicidal ratio of 5% or lower (almost no effect)) | 3 (Herbicidal ratio of 40% or higher and lower than 70%) | 5 (Herbicidal ratio of 90% or more (almost completely withered)) | 2 (Herbicidal ratio of 20% or higher and lower than 40%) | 5 (Herbicidal ratio of 90% or more (almost completely withered)) | 3 (Herbicidal ratio of 40% or higher and lower than 70%) |
| CON=C(C)CC1CC(OCCSC)=C(c2c(C)cc(C)cc2C)C1=O (stereo not drawn) [1-011] | 5 (Herbicidal ratio of 90% or more (almost completely withered)) | 0 (Herbicidal ratio of 5% or lower (almost no effect)) | 0 (Herbicidal ratio of 5% or lower (almost no effect)) | 0 (Herbicidal ratio of 5% or lower (almost no effect)) | 0 (Herbicidal ratio of 5% or lower (almost no effect)) | 4 (Herbicidal ratio of 70% or higher and lower than 90%) | 0 (Herbicidal ratio of 5% or lower (almost no effect)) | 0 (Herbicidal ratio of 5% or lower (almost no effect)) | 0 (Herbicidal ratio of 5% or lower (almost no effect)) | 0 (Herbicidal ratio of 5% or lower (almost no effect)) | 0 (Herbicidal ratio of 5% or lower (almost no effect)) | 0 (Herbicidal ratio of 5% or lower (almost no effect)) | 0 (Herbicidal ratio of 5% or lower (almost no effect)) | – | – | – | – | – |
| CON=C(C)CC1CC(OCC#N)=C(c2c(C)cc(C)cc2C)C1=O (stereo not drawn) [1-013] | 5 (Herbicidal ratio of 90% or more (almost completely withered)) | 0 (Herbicidal ratio of 5% or lower (almost no effect)) | 0 (Herbicidal ratio of 5% or lower (almost no effect)) | 0 (Herbicidal ratio of 5% or lower (almost no effect)) | 0 (Herbicidal ratio of 5% or lower (almost no effect)) | 4 (Herbicidal ratio of 70% or higher and lower than 90%) | 0 (Herbicidal ratio of 5% or lower (almost no effect)) | 0 (Herbicidal ratio of 5% or lower (almost no effect)) | 0 (Herbicidal ratio of 5% or lower (almost no effect)) | 0 (Herbicidal ratio of 5% or lower (almost no effect)) | 0 (Herbicidal ratio of 5% or lower (almost no effect)) | 0 (Herbicidal ratio of 5% or lower (almost no effect)) | 0 (Herbicidal ratio of 5% or lower (almost no effect)) | – | – | – | – | – |
